Data from patent US7202239B2, “Cyclohexylphenyl carboxamides tocolytic oxytocin receptor antagonists” (Wyeth, priority 2001, dated 2007).

Target: human vasopressin V1a receptor subtype (Homo sapiens, UniProt P37288)
Assay: Vasopressin binding in CHO cell membranes expressing human vasopressin V1a subtype receptors
Settings: [3H]Manning ligand; for IC50: value in parentheses; for inhibition at 0.1 µM / V1a % inhibition at 100 nM: 100 nM
Text: Vasopressin Binding in Chinese Hamster Ovary Cell Membranes Expressing Human Vasopressin V1a Subtype Receptors
Chinese hamster ovary cells (CHO cells) stably transfected with the human vasopressin V1a subtype receptors were either obtained from Biosignal Inc., 1744 rue Williams, Montreal, Quebec, Canada or obtained from M. Thibonnier, Case Western Reserve University School of Medicine, Cleveland, Ohio. A. Passaging and Amplification of Cells: CHO cells transfected with the human vasopressin V1a subtype receptors obtained from M. Thibonnier (pZeoSV vector) are allowed to grow to confluency (approx. >90%) in T-150 flasks under sterile conditions, in a cell culture medium of F-12 Nutrient Mixture (HAM) with L-glutamine (Gibco Cat. # 11765-054) containing 15 mM HEPES (Gibco Cat. 15630-080), 1% antibiotic/antimycotic (add 5 mL 100×, Gibco Cat. 15240-062 per 500 mL F-12), 250 μg/mL Zeocin (add 1.25 mL of 100 mg/mL Invitrogen R-250-01 per 500 mL F-12) and 10% Fetal Bovine Serum (Qualified, heat inactivated, Gibco Cat. # 16140-063). The medium is removed by aspiration and the cells are washed with 10 mL of Hank's Balanced Salt solution (Gibco Cat. # 14175-095). The salt solution is removed by aspiration and the cells are trypsinized with 5 mL of trypsin-EDTA (0.05% trypsin, 0.53 mM EDTA-4Na, Gibco Cat. # 25300-070) for 1 min. The trypsin is removed by aspiration and the cells dislodged by tapping. Cell Culture medium (eg, 30 mL for 1:30 split) is immediately added and mixed well to inactivate trypsin. 1 mL of detached cells is added to new culture flasks containing fresh cell culture medium (eg, into 25 mL per T-150 flask), and mixed gently. The cells are incubated at 37° C. in 5% CO2. The medium is changed at 3 to 4 days interval (or as appropriate). The cells grow to confluency (approx. >75%–95%) within 7–8 days. All steps are done under sterile conditions. B. Membrane Preparation: The cells are washed twice gently with Hank's Balanced Salt solution (e.g,. use 10 mL per T-150 flask). The excess is removed and the cells are bathed for 15–30 min. in an enzyme-free Cell Dissociation Buffer (e.g. use 8 mL Hank's Based, Gibco Cat. # 13150-016 per T-150 flask) until the cells are loosened. The contents are transferred to centrifuge tubes (50 mL) kept in an ice bath. All subsequent steps are done at 4° C. The tubes are centrifuged at 300×g for 15 min (1380 rpm on SORVAL, Model RT6000D, using rotor for the 50 mL tubes). The supernatant is discarded and the cells suspended in homogeneizing buffer(10 mM Tris-HCl containing 0.25 M sucrose and 1 mM EDTA, pH 7.4) ensuring that the volume of the buffer is about ten times the volume of the cell pellet. The cells are pooled into a centrifuge tube (50 mL) and homogenized with Polytron at setting 6 for 10 sec. The homogenate is transferred into a Potter-Elvjehm homogenizer and homogenized with 3 strokes. The homogenate is centrifuged at 1500× g for 10 min at 4° C. (3100 rpm using SORVAL, model RT6000D, using the rotor for 50 mL tubes). The pellet is discarded. The supernatant is centrifuged at 100,000×g for 60 min. at 4° C. (Beckman L8-80M ultracentrifuge; spin at 37,500 rpm with rotor type 70 Ti for 50 mL tubes; 38,000 rpm with type 80Ti for 15 mL tubes; or 35,800 rpm with rotor type 45Ti). The supernantant is discarded and the pellet suspended in 3 to 4 mL of Tris buffer (50 mM TRIS-HCl, pH 7.4). The protein content is estimated by the Bradford or Lowry method. The volume of the membrane suspension is adjusted with the membrane buffer (50 mM Tris-HCl containing 0.1% BSA and 0.1 mM PMSF) to give 3.0 mg/mL (or as appropriate) of protein. The membranes are aliquoted and stored at −70° C. C. […]

Sequence of human vasopressin V1a receptor subtype (P37288 whole entry): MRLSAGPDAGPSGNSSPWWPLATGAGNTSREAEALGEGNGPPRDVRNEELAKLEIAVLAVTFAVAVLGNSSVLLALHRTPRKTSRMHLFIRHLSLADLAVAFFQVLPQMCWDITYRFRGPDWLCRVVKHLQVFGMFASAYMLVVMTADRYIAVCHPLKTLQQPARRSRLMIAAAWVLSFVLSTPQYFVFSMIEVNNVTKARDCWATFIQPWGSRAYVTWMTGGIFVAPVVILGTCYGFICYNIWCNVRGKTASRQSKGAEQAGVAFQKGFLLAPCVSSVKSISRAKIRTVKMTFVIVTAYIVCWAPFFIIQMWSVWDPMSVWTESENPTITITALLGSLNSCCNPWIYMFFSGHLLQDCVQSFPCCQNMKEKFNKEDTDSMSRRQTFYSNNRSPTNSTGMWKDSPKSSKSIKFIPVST

| SMILES | inhibition at 0.1 µM [%] | other results |
| --- | --- | --- |
| NNC(=O)c1ccc2n1Cc1ccccc1N(C(=O)c1ccc(C3CCCCC3)cc1)C2 [Example 8, 10-(4-Cyclohexy-benzoyl)-10,11-dihydro-5H-pyrrolo[2,1-c][1,4]benzodiazepine-3-carboxylic acid hydrazide] |  | IC50: 543 nM |
| CN(N)C(=O)c1ccc2n1Cc1ccccc1N(C(=O)c1ccc(C3CCCCC3)cc1)C2 [Example 21, 10-(4-Cyclohexyl-benzoyl)-N-methyl-10,11-dihydro-5H-pyrrolo[2,1-c][1,4]benzodiazepine-3-carboxylic acid hydrazide] | 21 |  |
| O=C(c1ccc2n1Cc1ccccc1N(C(=O)c1ccc(C3CCCCC3)cc1)C2)N1CCN(CCO)CC1 [Example 48, [10-(4-Cyclohexyl-benzoyl)-10,11-dihydro-5H-pyrrolo[2,1-c][1,4]benzodiazepin-3-y][4-(2-hydroxyethyl)-1-piperazinyl]methanone] |  | V1a % inhibition at 100 nM: 35% |
| O=C(c1ccc2n1Cc1ccccc1N(C(=O)c1ccc(C3CCCCC3)cc1)C2)N1CCC(N2CCCC2)CC1 [Example 25, [10-(4-Cyclohexyl-benzoyl)-10,11-dihydro-5H-pyrrolo[2,1-c][1,4]benzodiazepin-3-yl][4-(1-pyrrolidinyl)-1-piperidinyl]methanone] |  | IC50: 90.4 nM |
| CN(C)CCCNC(=O)c1ccc2n1Cc1ccccc1N(C(=O)c1ccc(C3CCCCC3)cc1)C2 [Example 33, 10-(4-Cyclohexyl-benzoyl)-N-[3-(dimethylamino)propyl]-10,11-dihydro-5H-pyrrolo[2,1-c][1,4]benzodiazepine-3-carboxamide] | 27 |  |
| COc1ccc(NC(=O)c2ccc3n2Cc2ccccc2N(C(=O)c2ccc(C4CCCCC4)cc2)C3)cc1 [Example 29, 10-(4-Cyclohexyl-benzoyl)-10,11-dihydro-5H-pyrrolo[2,1-c][1,4]benzodiazepine-3-carboxylic acid (4-methoxy-phenyl)-amide] | 2 |  |
| CN(C)CCN1CCN(C(=O)c2ccc3n2Cc2ccccc2N(C(=O)c2ccc(C4CCCCC4)cc2)C3)CC1 [Example 41, [10-(4-Cyclohexyl-benzoyl)-10,11-dihydro-5H-pyrrolo[2,1-c][1,4]benzodiazepin-3-yl]{4-[2-(dimethylamino)ethyl]-1-piperazinyl}methanone] | 14 |  |
| CN1CCCN(C(=O)c2ccc3n2Cc2ccccc2N(C(=O)c2ccc(C4CCCCC4)cc2)C3)CC1 [Example 30, [10-(4-Cyclohexyl-benzoyl)-10,11-dihydro-5H-pyrrolo[2,1-c][1,4]benzodiazepin-3-yl](4-methyl-[1,4]-diazepan-1-yl)-methanone] | 49 |  |
| O=C(NCCCn1ccnc1)c1ccc2n1Cc1ccccc1N(C(=O)c1ccc(C3CCCCC3)cc1)C2 [Example 36, 10-(4-Cyclohexyl-benzoyl)-N-[3-(1H-imidazol-1-yl)propyl]-10,11-dihydro-5H-pyrrolo[2,1-c][1,4]benzodiazepine-3-carboxamide] | 3 |  |
| CN(C)CCN(C)C(=O)c1ccc2n1Cc1ccccc1N(C(=O)c1ccc(C3CCCCC3)cc1)C2 [Example 34, 10-(4-Cyclohexyl-benzoyl)-N-[2-(dimethylamino)-ethyl]-N-methyl-10,11-dihydro-5H-pyrrolo[2,1-c][1,4]benzodiazepine-3-carboxamide] | 3 |  |
| O=C(O)c1ccc2n1Cc1ccccc1N(C(=O)c1ccc(C3CCCCC3)cc1)C2 [Example 22, 10-(4-Cyclohexyl-benzoyl)-10,11-dihydro-5H-pyrrolo[2,1 c][1,4]benzodiazepine-3-carboxylic acid] |  | V1a % inhibition at 100 nM: 13% |
| O=C(c1ccc(C2CCCCC2)cc1)N1Cc2ccc(C(=O)n3ccnc3)n2Cc2ccccc21 [Example 56, 1H-Imidazol-1-yl-[10-(4-cyclohexyl-benzoyl)-10,11-dihydro-5H-pyrrolo[2,1-c][1,4]benzodiazepin-3-yl]-methanone] | 16 |  |
| NC(=O)c1ccc2n1Cc1ccccc1N(C(=O)c1ccc(C3CCCCC3)cc1)C2 [Example 16, 10-(4-Cyclohexyl-benzoyl)-10,11-dihydro-5H-pyrrolo[2,1-c][1,4]benzodiazepin-3-carboxamide] |  | IC50: 377 nM |
| O=C(NCCN1CCCCC1)c1ccc2n1Cc1ccccc1N(C(=O)c1ccc(C3CCCCC3)cc1)C2 [Example 37, 10-(4-Cyclohexyl-benzoyl)-N-[2-(1-piperidinyl)ethyl]-10,11-dihydro-5H-pyrrolo[2,1-c][1,4]benzodiazepine-3-carboxamide] | 23 |  |
| CN(C)C=NNC(=O)c1ccc2n1Cc1ccccc1N(C(=O)c1ccc(C3CCCCC3)cc1)C2 [Example 10, N′-{[10-(4-Cyclohexyl-benzoyl)-10,11-dihydro-5H-pyrrolo[2,1-c][1.4]benzodiazepin-3-yl]carbonyl}-N,N-dimethylhydrazonoformamide] |  | IC50: 366 nM |
| O=C(c1ccc2n1Cc1ccccc1N(C(=O)c1ccc(C3CCCCC3)cc1)C2)N1CCN(c2ncccn2)CC1 [Example 23] |  | IC50: 635 nM |
| CN(C)/C=C/C(=O)c1ccc2n1Cc1ccccc1N(C(=O)c1ccc(C3CCCCC3)cc1)C2 [Example 20, (E)-1-[10-(4-Cyclohexyl-benzoyl)-10,11-dihydro-5H-pyrrolo[2,1-c][1,4]benzodiazepin-3-yl]-3-(dimethylamino)-2-propen-1-one] | 21 |  |
| CC(=O)NNC(=O)c1ccc2n1Cc1ccccc1N(C(=O)c1ccc(C3CCCCC3)cc1)C2 [Example 11, N′-Acetyl-10-(4-cyclohexyl-benzoyl)-10,11-dihydro-5H-pyrrolo[2,1-c][1,4]benzodiazepine-3-carbonyl-hydrazide] |  | IC50: 367 nM |
| CN(C)/C=N/C(=O)c1ccc2n1Cc1ccccc1N(C(=O)c1ccc(C3CCCCC3)cc1)C2 [Example 17] |  | IC50: 306 nM |
| O=C(c1ccc2n1Cc1ccccc1N(C(=O)c1ccc(C3CCCCC3)cc1)C2)N1CCN(c2ccncc2)CC1 [Example 54, [10-(4-Cyclohexyl-benzoyl)-10,11-dihydro-5H-pyrrolo[2,1-c][1,4]benzpdiazepin-3-yl][4-(4-pyridinyl)-1-piperazinyl]-methanone] |  | V1a % inhibition at 100 nM: 0% |
| Cc1ccccc1N1CCN(C(=O)c2ccc3n2Cc2ccccc2N(C(=O)c2ccc(C4CCCCC4)cc2)C3)CC1 [Example 27, [10-(4-Cyclohexyl-benzoyl)-10,11-dihydro-5H-pyrrolo[2,1-c][1,4]benzodiazepin-3-yl][4-(2-methylphenyl)-1-piperazinyl]-methanone] | 6 |  |
| C=CCN1CCN(C(=O)c2ccc3n2Cc2ccccc2N(C(=O)c2ccc(C4CCCCC4)cc2)C3)CC1 [Example 43, (4-Allyl-1-piperazinyl)[10-(4-cyclohexyl-benzoyl)-10,11-dihydro-5H-pyrrolo[2,1-c][1,4]benzodiazepin-3-yl]methanone] | 1 |  |
| CN(C)CCCN(C)C(=O)c1ccc2n1Cc1ccccc1N(C(=O)c1ccc(C3CCCCC3)cc1)C2 [Example 35, 10-(4-Cyclohexyl-benzoyl)-N-[3-(dimethylamino)propyl]N-methyl-10,11-dihydro-5H-pyrrolo[2,1-c][1,4]benzodiazepine-3-carboxamide] | 12 |  |
| O=C(NCc1ccncc1)c1ccc2n1Cc1ccccc1N(C(=O)c1ccc(C3CCCCC3)cc1)C2 [Example 53, 10-(4-Cyclohexyl-benzoyl)-N-(4-pyridinylmethyl)-10,11-dihydro-5H-pyrrolo[2,1-c][1,4]benzodiazepine-3-carboxamide] | 20 |  |
